Experimental data from EP0920857B1, “Oral composition for the treatment of halitosis” (DENTAID, S.A., priority 1997, dated 1999).
Read-outs that look alike come from different tables or passages of the source.

Key:
Assay type in all cases: cell-based
[1] = tested on: P. gingivalis; test: short interval killing test (SIKT), count per strain
Description: (§1) The anti-microbial activity of the mouth rinse evaluated "in vitro" by mortality studies over short intervals of time (short interval killing test, SIKT) against a mixture of periodontal bacteria containing between 1.0*10^5 and 1.0*10^7 CFU ml of each strain. The total counts obtained in the surviving flora and those pertaining to each strain after one minute of contact are summarised in Tables 3 and 4. TABLA 3

[2] = tested on: Peptostreptococcus micros; test: as above
Description: as §1

[3] = tested on: P. intermedia; test: as above
Description: as §1

[4] = tested on: F. nucleatum; test: as above
Description: as §1

[5] = tested on: mixture of periodontal bacteria; test: short interval killing test (SIKT), total surviving flora
Description: as §1

[6] = tested on: P.intermedia; test: minimum inhibitory concentration (MIC), method of diffusion in agar
Description: (§2) The anti-microbial activity of a certain number of active ingredients was obtained by study of the minimum inhibitory concentrations (MIC) of the respective agents (by the method of diffusion in agar) against bacteria representing periodontal disease.

[7] = tested on: A.actinomycetemcomitans; test: as above
Description: as §2

[8] = tested on: P.gingivalis; test: as above
Description: as §2

[9] = P. gingivalis, one minute of contact, PBS = 100%
[10] = Peptostreptococcus micros, one minute of contact, PBS = 100%
[11] = P. intermedia, one minute of contact, PBS = 100%
[12] = F. nucleatum, one minute of contact, PBS = 100%
[13] = one minute of contact, 1.0*10^5 to 1.0*10^7 CFU ml of each strain, PBS = 100%

**Q.** What does the source list for N=C(NCCCCCCNC(=N)NC(=N)Nc1ccc(Cl)cc1)NC(=N)Nc1ccc(Cl)cc1.O=C(O)[C@H](O)[C@@H](O)[C@H](O)[C@H](O)CO.O=C(O)[C@H](O)[C@@H](O)[C@H](O)[C@H](O)CO [CHX, 1,6-bis (N^5-p-chlorophenyl-N^1-diguanido)hexane digluconate]?
**A.** CFU/ml recovered from each strain (%) [1, 9]: <0.81%; CFU/ml recovered from each strain (%) [2, 10]: 82.12%; CFU/ml recovered from each strain (%) [3, 11]: <0.56%; CFU/ml recovered from each strain (%) [4, 12]: 0.87%; Total CFU/ml recovered (%) at 1 minute [5, 13]: 25.55%

**Q.** How did the “CFU/ml recovered from each strain (%)” value [1] turn out when CCCCCCCCCCCCCCCC[n+]1ccccc1 [CPC, cetylpyridinium chloride] was run?
**A.** The value was under 0.01%.

**Q.** And the “CFU/ml recovered from each strain (%)” value [2]?
**A.** The value was 0.03%.

**Q.** And the “CFU/ml recovered from each strain (%)” value [3]?
**A.** Its value is 0.01%.

**Q.** And the “CFU/ml recovered from each strain (%)” value [4]?
**A.** Its value is 0.05%.

**Q.** And the “Total CFU/ml recovered (%) at 1 minute” value [5]?
**A.** Its value is 0.04%.

**Q.** [H]/N=C(\N/C(=N/[H])NCCCCCCNC(=N)NC(=N)Nc1ccc(Cl)cc1)Nc1ccc(Cl)cc1 [Chlorhexidine] was tested. Which “Minimum inhibitory concentration (MIC, % concentration)” value [6] did it give?
**A.** Its value is 0.0009%.

**Q.** And the Minimum inhibitory concentration [7]?
**A.** The Minimum inhibitory concentration was 0.004%.

**Q.** And the “Minimum inhibitory concentration (%)” value [8]?
**A.** Its value is 0.002%.

**Q.** What does the source list for O=C([O-])[C@H](O)[C@@H](O)[C@H](O)[C@H](O)CO.O=C([O-])[C@H](O)[C@@H](O)[C@H](O)[C@H](O)CO.[Cu+2] [Cu^++ gluconate]?
**A.** Minimum inhibitory concentration (MIC, % concentration) [6]: 0.004%; Minimum inhibitory concentration (%) [8]: 0.06%

**Q.** CCCCC(CC)CN1CN(CC(CC)CCCC)CC(C)(N)C1 (centres unmarked) [Hexetidine] was tested. Which “Minimum inhibitory concentration (MIC, % concentration)” value [6] did it give?
**A.** Its value is 0.001%.

**Q.** What about the Minimum inhibitory concentration [7] of the same compound?
**A.** The Minimum inhibitory concentration was 0.09%.

**Q.** What about the “Minimum inhibitory concentration (%)” value [8] of the same compound?
**A.** Its value is 0.001%.

**Q.** With Oc1cc(Cl)ccc1Oc1ccc(Cl)cc1Cl [Triclosan, 5-chloro-2-(2,4-dichlorophenoxy)-phenol] as the compound, how does the “Minimum inhibitory concentration (MIC, % concentration)” value [6] read?
**A.** The value was 0.009%.

**Q.** What about the Minimum inhibitory concentration [7] of the same compound?
**A.** Its Minimum inhibitory concentration is 0.0006%.

**Q.** What about the “Minimum inhibitory concentration (%)” value [8] of the same compound?
**A.** The value was 0.004%.

**Q.** With O=S(=O)([O-])[O-].[Zn+2] [Zn^++, sulphate] as the compound, how does the “CFU/ml recovered from each strain (%)” value [1, 9] read?
**A.** The value was 33.9%.

**Q.** What about the “CFU/ml recovered from each strain (%)” value [2, 10] of the same compound?
**A.** The value was 54.5%.

**Q.** And the “CFU/ml recovered from each strain (%)” value [3, 11]?
**A.** Its value is 0.56%.

**Q.** What about the “CFU/ml recovered from each strain (%)” value [4, 12] of the same compound?
**A.** Its value is 40.9%.

**Q.** And the “Minimum inhibitory concentration (MIC, % concentration)” value [6]?
**A.** Its value is 0.5%.

**Q.** And the Minimum inhibitory concentration [7]?
**A.** The Minimum inhibitory concentration was 0.1%.

**Q.** What about the “Minimum inhibitory concentration (%)” value [8] of the same compound?
**A.** Its value is 0.5%.

**Q.** What about the “Total CFU/ml recovered (%) at 1 minute” value [5, 13] of the same compound?
**A.** Its value is 47.65%.
